Source: patent US7897602B2, “Indolinone compounds as kinase inhibitors” (Development Center for Biotechnology, priority 2009, dated 2011)

What was measured:
VEGFR2 kinase = target: T1, VEGFR2 kinase (Homo sapiens, UniProt P35968); test: VEGFR2 kinase assay (33P incorporation into Poly(Glu-Tyr)); type: biochemical; conditions: 500 nM test compound; read-out: Inhibition at 500 nM (%) VEGFr-2
T1 construct: recombinant N-terminal 6×His-tagged VEGFR2 kinase domain construct expressed by baculovirus; 6xHis (N); made in house
T1 sequence (P35968 834-1162 limits assumed): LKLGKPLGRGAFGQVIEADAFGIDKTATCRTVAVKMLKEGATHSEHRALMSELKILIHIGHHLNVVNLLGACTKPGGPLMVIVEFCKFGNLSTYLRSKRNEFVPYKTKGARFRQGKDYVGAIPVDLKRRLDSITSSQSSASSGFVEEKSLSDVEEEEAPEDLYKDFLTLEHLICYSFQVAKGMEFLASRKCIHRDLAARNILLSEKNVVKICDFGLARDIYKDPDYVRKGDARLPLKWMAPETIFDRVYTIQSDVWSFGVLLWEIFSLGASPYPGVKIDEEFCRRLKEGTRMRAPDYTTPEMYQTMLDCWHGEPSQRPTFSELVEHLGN
Procedure, shortened: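 Recombinant baculovirus-expressed N-terminal His6-tagged VEGFR2 kinase domain (6.25 ng) phosphorylated poly(Glu-Tyr) 4:1 with 100 μM ATP plus [33P]-γ-ATP in MOPS pH 7.0, 30 °C, 30 min. Test compound was at 500 nM (4% DMSO). Filter-retained radioactivity relative to DMSO control gave % inhibition.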

Flt3 kinase = target: T2, Flt3 kinase (Homo sapiens, UniProt P36888); test: Flt3 kinase assay (33P incorporation into Poly(Glu-Tyr)); type: biochemical; conditions: 100 nM test compound; read-out: Inhibition at 100 nM (%) Flt-3
T2 construct: recombinant N-terminal 6×His-tagged Flt3 kinase domain construct expressed from baculovirus; 6xHis (N); made in house
T2 sequence (P36888 610-943 limits assumed): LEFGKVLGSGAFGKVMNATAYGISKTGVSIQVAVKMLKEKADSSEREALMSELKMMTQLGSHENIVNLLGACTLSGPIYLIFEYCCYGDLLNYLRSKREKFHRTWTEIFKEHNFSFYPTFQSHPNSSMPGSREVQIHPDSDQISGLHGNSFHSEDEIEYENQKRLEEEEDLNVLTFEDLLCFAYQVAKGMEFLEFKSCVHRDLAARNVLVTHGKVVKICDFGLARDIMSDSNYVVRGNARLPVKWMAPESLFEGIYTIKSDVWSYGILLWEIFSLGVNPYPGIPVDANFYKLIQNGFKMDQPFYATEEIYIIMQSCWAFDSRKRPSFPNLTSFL
Procedure, shortened: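 Baculovirus-expressed His-tagged Flt3 kinase domain (5 ng) with Poly(Glu-Tyr) 4:1 substrate, 100 μM ATP plus [33P]-γ-ATP, in MOPS pH 7.0 buffer, 30 min at 30 °C. Compound tested at a single 100 nM concentration; filter-bound radioactivity counted and percent inhibition calculated relative to DMSO control.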

| SMILES | inhibition at 0.5 µM (VEGFR2 kinase) [%] | inhibition at 0.1 µM (Flt3 kinase) [%] |
| --- | --- | --- |
| O=C(O)CCc1c(/C=C2\C(=O)Nc3ccc(S(=O)(=O)N4CCCCC4)cc32)[nH]c2c1C(=O)CCC2 [DCB-70114, (Z)-5-(piperidin-1-ylsulfonyl)-3-((3-carboxyethyl-4-oxo-4,5,6,7-tetrahydro-1H-indol-2-yl)methylene)indolin-2-one] | 22.6 | 12 |
| CCOC(=O)CCc1c(/C=C2\C(=O)Nc3cc(-c4cc(F)cc(F)c4)ccc32)[nH]c2c1C(=O)CCC2 [DCB-70100, (Z)-6-(3,5-difluorophenyl)-3-((3-(3-ethoxy-3-oxopropyl)-4-oxo-4,5,6,7-tetrahydro-1H-indol-2-yl)methylene)indolin-2-one] | 17.7 | 12.5 |
| O=C(O)CCc1c(/C=C2\C(=O)Nc3ccccc32)[nH]c2c1C(=O)CCC2 [DCB-70052, (Z)-3-((3-carboxyethyl-4-oxo-4,5,6,7-tetrahydro-1H-indol-2-yl)methylene)indolin-2-one] | 85 | 72.1 |
| CCOC(=O)CCc1c(/C=C2\C(=O)Nc3ccc(NS(=O)(=O)c4ccccc4)cc32)[nH]c2c1C(=O)CCC2 [DCB-70102, (Z)-5-phenylsulfonamido-3-((3-(3-ethoxy-3-oxopropyl)-4-oxo-4,5,6,7-tetrahydro-1H-indol-2-yl)methylene)indolin-2-one] | 68 | 75.9 |
| CN(C)S(=O)(=O)c1ccc2c(c1)/C(=C/c1[nH]c3c(c1CCC(=O)O)C(=O)CCC3)C(=O)N2 [DCB-70121, (Z)-5-(N,N-dimethylsulfamoyl)-3-((3-carboxyethyl-4-oxo-4,5,6,7-tetrahydro-1H-indol-2-yl)methylene)indolin-2-one] | 19.6 | 14.6 |
| CCOC(=O)CCc1c(C=C2C(=S)Nc3cc(Br)ccc32)[nH]c2c1C(=O)CCC2 [DCB-70085, 6-bromo-3-((3-(3-ethoxy-3-oxopropyl)-4-oxo-4,5,6,7-tetrahydro-1H-indol-2-yl)methylene)indolin-2-thione] | 25.4 | 18.2 |
| O=C(O)CCc1c(/C=C2\C(=O)Nc3ccc(Br)cc32)[nH]c2c1C(=O)CCC2 [DCB-70057, (Z)-5-bromo-3-((3-carboxyethyl-4-oxo-4,5,6,7-tetrahydro-1H-indol-2-yl)methylene)indolin-2-one] | 94.9 | 92.8 |
| CCOC(=O)CCc1c(/C=C2\C(=O)Nc3ccc(NC(=O)Nc4ccccc4)cc32)[nH]c2c1C(=O)CCC2 [DCB-70134, (Z)-ethyl 3-(4-oxo-2-((2-oxo-5-(3-phenylureido)indolin-3-ylidene)methyl)-4,5,6,7-tetrahydro-1H-indol-3-yl)propanoate] | 20.7 | 40.9 |
| O=C(O)CCc1c(/C=C2\C(=O)Nc3cc(Br)ccc32)[nH]c2c1C(=O)CCC2 [DCB-70133, (Z)-3-(2-((6-bromo-2-oxoindolin-3-ylidene)methyl)-4-oxo-4,5,6,7-tetrahydro-1H-indol-3-yl)propanoic acid] | 54.2 | 6.1 |
| Cc1ccc(NC(=O)Nc2ccc3c(c2)/C(=C/c2[nH]c4c(c2CCC(=O)O)C(=O)CCC4)C(=O)N3)cc1 [DCB-70093, (Z)-5-(3-p-tolylureido)-3-((3-carboxyethyl-4-oxo-4,5,6,7-tetrahydro-1H-indol-2-yl)methylene)indolin-2-one] | 70.1 | 44.7 |
| O=C(O)CCc1c(/C=C2\C(=O)Nc3ccc(-c4cc5ccccc5s4)cc32)[nH]c2c1C(=O)CCC2 [DCB-70070, (Z)-5-(benzo[b]thiophen-2-yl)-3-((3-carboxyethyl-4-oxo-4,5,6,7-tetrahydro-1H-indol-2-yl)methylene)indolin-2-one] | 45.5 | 13.3 |
| O=C(O)CCc1c(/C=C2\C(=O)Nc3ccc(S(=O)(=O)Cc4ccccc4)cc32)[nH]c2c1C(=O)CCC2 [DCB-70071, (Z)-5-benzylsulfonyl-3-((3-carboxyethyl-4-oxo-4,5,6,7-tetrahydro-1H-indol-2-yl)methylene)indolin-2-one] | 91.8 | 21.2 |
